Holding throughout (assay type): cell-based
Test [1] concerns the target T1, BRS-3 (bombesin receptor subtype-3, BB3), human (Homo sapiens, UniProt P32247).
T1 construct: gene BRS3
T1 sequence (P32247 1-399): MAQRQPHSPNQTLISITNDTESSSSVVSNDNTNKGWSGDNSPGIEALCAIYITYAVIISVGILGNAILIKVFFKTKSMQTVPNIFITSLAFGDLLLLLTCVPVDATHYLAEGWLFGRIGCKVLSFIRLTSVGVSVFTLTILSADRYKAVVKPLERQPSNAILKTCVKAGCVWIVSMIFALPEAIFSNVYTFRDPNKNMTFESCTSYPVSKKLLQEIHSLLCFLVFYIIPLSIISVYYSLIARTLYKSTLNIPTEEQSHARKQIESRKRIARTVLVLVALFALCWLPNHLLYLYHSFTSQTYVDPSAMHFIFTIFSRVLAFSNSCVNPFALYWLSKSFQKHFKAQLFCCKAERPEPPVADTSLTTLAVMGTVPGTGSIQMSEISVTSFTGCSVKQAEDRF
Description: inhibition of […] MK-5046-induced IP1 accumulation (HTRF) in H1299-hBRS-3 stable cells. On the technique in general: TR-FRET usually uses a lanthanide donor and a delayed reading to cut background.

The target of test [2] is T2, BRS-3 (bombesin receptor subtype-3, BB3), murine (Mus musculus, UniProt O54798).
T2 construct: gene Brs3
T2 sequence (O54798 1-399): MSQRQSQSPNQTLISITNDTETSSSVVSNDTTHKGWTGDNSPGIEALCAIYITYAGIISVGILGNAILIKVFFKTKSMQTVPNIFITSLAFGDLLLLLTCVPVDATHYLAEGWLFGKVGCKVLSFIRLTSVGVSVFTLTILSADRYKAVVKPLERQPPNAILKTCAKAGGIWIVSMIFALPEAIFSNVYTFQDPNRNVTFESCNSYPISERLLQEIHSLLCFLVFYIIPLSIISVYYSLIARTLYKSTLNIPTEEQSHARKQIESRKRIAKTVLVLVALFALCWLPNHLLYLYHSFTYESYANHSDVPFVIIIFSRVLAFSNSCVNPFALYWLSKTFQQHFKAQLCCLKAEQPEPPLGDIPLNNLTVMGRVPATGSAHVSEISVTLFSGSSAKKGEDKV
Description: inhibition of […] MK-5046-induced Ca2+ mobilization (FLIPR) in HEK293-mBRS-3 stable cells; also DMR (IC50 […]). (In general: Calcium flux is commonly read through the fluorescence of an indicator in the cells.)

Test [3] addresses T2, BRS-3 (bombesin receptor subtype-3, BB3), murine. As to the kind of experiment: reference peptide antagonist; inhibition of […] MK-5046-induced Ca2+ mobilization (FLIPR) in HEK293-mBRS-3 stable cells.

This is an account of results in article PMC11943355, “Identification of a Novel Antagonist of BRS-3 from Natural Products and Its Protective Effects Against H2O2-Induced Cardiomyocyte Injury” (International Journal of Molecular Sciences, 2025).

The term IC50 denotes the point on the concentration scale where inhibition reaches its midpoint.

As to `CC(C)=CCc1c(O)ccc(-c2coc3cc(O)cc(O)c3c2=O)c1O` [LIA, licoisoflavone A], the IC50 in test [1] stood at 0.841 µM; in test [2] it was 0.706 µM.
Take Bantag-1: the concentration for half-maximal inhibition (IC50) in test [3] was found to be 0.00232 µM. In other words, the single-digit nanomolar range.
